According to ChEMBL document CHEMBL1687756 (Antimicrob Agents Chemother, 2010):

Experiments:
[1] = Drug level in Beagle dog muscle at non-injected site at 5 mg/kg, sc after 6 months; type: ADME, organism-based, Canis lupus familiaris, Muscle tissue; parameters: dose 5 mg/kg, route subcutaneous; conditions: read-out: Drug uptake
[2] = Drug level in male Beagle dog spleen at 200 mg/kg, sc after 3 months; type: ADME, organism-based, Canis lupus familiaris; parameters: dose 200 mg/kg, route subcutaneous; conditions: read-out: Drug uptake
[3] = Drug level in Beagle dog lymph node popliteal at 5 mg/kg, sc after 3 months; type: ADME, organism-based, Canis lupus familiaris; parameters: dose 5 mg/kg, route subcutaneous; conditions: read-out: Drug uptake
[4] = Ratio of drug level in lymph node iliac to plasma in Beagle dog at 5 mg/kg administered intramuscularly after 1 month; type: ADME, organism-based, Canis lupus familiaris; parameters: dose 5 mg/kg, route intramuscular; conditions: im
[5] = Ratio of drug level in thymus to plasma in female Beagle dog at 400 mg/kg, sc after 3 months; type: ADME, organism-based, Canis lupus familiaris; parameters: dose 400 mg/kg, route subcutaneous
[6] = Drug level in Beagle dog skin at non-injected site at 5 mg/kg administered intramuscularly after 3 months; type: ADME, organism-based, Canis lupus familiaris, Zone of skin; parameters: dose 5 mg/kg, route intramuscular; conditions: im, read-out: Drug uptake
[7] = Cmax in female dog at 200 mg administered intramuscularly after 85 days; conditions: in vivo, im
[8] = Drug level in Beagle dog thymus at 5 mg/kg, sc after 6 months; type: ADME, organism-based, Canis lupus familiaris; parameters: dose 5 mg/kg, route subcutaneous; conditions: read-out: Drug uptake
[9] = Ratio of drug level in thymus to plasma in Beagle dog at 5 mg/kg, sc after 6 months; type: ADME, organism-based, Canis lupus familiaris; parameters: dose 5 mg/kg, route subcutaneous
[10] = Ratio of drug level in thymus to plasma in female Beagle dog at 200 mg/kg, sc after 3 months; type: ADME, organism-based, Canis lupus familiaris; parameters: dose 200 mg/kg, route subcutaneous
[11] = Plasma concentration in Beagle dog at 5 mg/kg, sc after 6 months; type: ADME, organism-based, Canis lupus familiaris; parameters: dose 5 mg/kg, route subcutaneous
[12] = Tmax in Beagle dog at 5 mg/kg administered intramuscularly after 176 days; type: ADME, organism-based, Canis lupus familiaris; parameters: dose 5 mg/kg, route intramuscular; conditions: in vivo, im
[13] = Drug level in male Beagle dog thymus at 200 mg/kg administered intramuscularly after 3 months; type: ADME, organism-based, Canis lupus familiaris; parameters: dose 200 mg/kg, route intramuscular; conditions: im, read-out: Drug uptake
[14] = Ratio of drug level in lymph node mandibular to plasma in Beagle dog at 5 mg/kg, sc after 3 months; type: ADME, organism-based, Canis lupus familiaris; parameters: dose 5 mg/kg, route subcutaneous
[15] = Drug level in Beagle dog lymph node axillar at 5 mg/kg, sc after 3 months; type: ADME, organism-based, Canis lupus familiaris; parameters: dose 5 mg/kg, route subcutaneous; conditions: axillary lymph node, read-out: Drug uptake
[16] = Drug level in Beagle dog spleen at 5 mg/kg, sc after 3 months; type: ADME, organism-based, Canis lupus familiaris; parameters: dose 5 mg/kg, route subcutaneous; conditions: read-out: Drug uptake
[17] = Ratio of drug level in liver to plasma in Beagle dog at 5 mg/kg, sc after 3 months; type: ADME, organism-based, Canis lupus familiaris; parameters: dose 5 mg/kg, route subcutaneous
[18] = Plasma concentration in female Beagle dog at 200 mg/kg, sc after 1 month; type: ADME, organism-based, Canis lupus familiaris; parameters: dose 200 mg/kg, route subcutaneous; conditions: read-out: Drug uptake
[19] = AUC (0 to last) in Beagle dog at 5 mg/kg, sc after 176 days; type: ADME, organism-based, Canis lupus familiaris; parameters: time 0 - last, dose 5 mg/kg, route subcutaneous; conditions: plasma
[20] = Plasma concentration in female Beagle dog at 200 mg/kg administered intramuscularly after 3 months; type: ADME, organism-based, Canis lupus familiaris; parameters: dose 200 mg/kg, route intramuscular; conditions: im
[21] = Plasma concentration in female Beagle dog at 200 mg/kg, sc after 3 months; type: ADME, organism-based, Canis lupus familiaris; parameters: dose 200 mg/kg, route subcutaneous
[22] = Drug level in Beagle dog lymph node iliac at 5 mg/kg, sc after 1 month; type: ADME, organism-based, Canis lupus familiaris; parameters: dose 5 mg/kg, route subcutaneous; conditions: read-out: Drug uptake
[23] = Ratio of drug level in thymus to plasma in male Beagle dog at 400 mg/kg, sc after 1 month; type: ADME, organism-based, Canis lupus familiaris; parameters: dose 400 mg/kg, route subcutaneous
[24] = Ratio of drug level in spleen to plasma in male Beagle dog at 400 mg/kg, sc after 1 month; type: ADME, organism-based, Canis lupus familiaris; parameters: dose 400 mg/kg, route subcutaneous
[25] = Drug level in Beagle dog lymph node iliac at 5 mg/kg, sc after 6 months; type: ADME, organism-based, Canis lupus familiaris; parameters: dose 5 mg/kg, route subcutaneous; conditions: read-out: Drug uptake
[26] = Cmax in female dog at 400 mg administered intramuscularly after 85 days; conditions: in vivo, im
[27] = Drug level in male Beagle dog spleen at 400 mg/kg, sc after 3 months; type: ADME, organism-based, Canis lupus familiaris; parameters: dose 400 mg/kg, route subcutaneous; conditions: read-out: Drug uptake
[28] = Drug level in female Beagle dog thymus at 200 mg/kg, sc after 1 month; type: ADME, organism-based, Canis lupus familiaris; parameters: dose 200 mg/kg, route subcutaneous; conditions: read-out: Drug uptake
[29] = Ratio of drug level in lymph node axillar to plasma in Beagle dog at 5 mg/kg, sc after 3 months; type: ADME, organism-based, Canis lupus familiaris; parameters: dose 5 mg/kg, route subcutaneous; conditions: axillary lymph node/plasma

concentration at 4383 h [1]: < 5 ng/g | concentration at 2191.5 h [2]: 36.2 ng/g | concentration at 2191.5 h [3]: 26.8 ng/g | Kp at 730.5 h [4]: 168 | Kp at 2191.5 h [5]: 2.9 | concentration at 2191.5 h [6]: 12.4 ng/g | Cmax [7]: 1140 ng/mL | concentration at 4383 h [8]: 20.2 ng/g | Kp at 4383 h [9]: 16 | Kp at 2191.5 h [10]: 4 | concentration at 4383 h [11]: 1.3 ng/mL | Tmax [12]: 30 min | concentration at 2191.5 h [13]: 34.4 ng/g | Kp at 2191.5 h [14]: 4 | concentration at 2191.5 h [15]: 22.1 ng/g | concentration at 2191.5 h [16]: 9.7 ng/g | Kp at 2191.5 h [17]: 14 | concentration at 730.5 h [18]: 71.8 ng/g | AUC(0-t) at 4224 h [19]: 19700 ng·h/mL | concentration at 2191.5 h [20]: 10.1 ng/mL | concentration at 2191.5 h [21]: 26.8 ng/mL | concentration at 730.5 h [22]: 64.9 ng/g | Kp at 730.5 h [23]: 2.9 | Kp at 730.5 h [24]: 2.9 | concentration at 4383 h [25]: 9.9 ng/g | Cmax [26]: 5260 ng/mL | concentration at 2191.5 h [27]: 11.3 ng/g | concentration at 730.5 h [28]: 536 ng/g | Kp at 2191.5 h [29]: 6.8
Structure (SMILES): Cc1cc(/C=C/C#N)cc(C)c1Nc1ccnc(Nc2ccc(C#N)cc2)n1 [RILPIVIRINE]
